Results taken from US20090176742A1, “METHODS RELATING TO THE TREATMENT OF FIBROTIC DISORDERS” (UNIVERSITY OF WASHINGTON, priority 2005, published 2009).

Tests used:
[1] = system: TCF/β-catenin transcription; assay: Bat-Gal transgenic mice given intratracheal bleomycin; lung sections stained with X-Gal (reporter for TCF/β-catenin transcription); format: in vivo; conditions: ICG-001 5 mg/Kg/day via minipump (subcutaneously)
Description: FIG. 14. FIG. 14A-C depicts lung sections taken from Bat-Gal transgenic mice given intratracheal saline or bleomycin and either treated with ICG-001 (5 mgs/Kg/day subcutaneously) or saline as vehicle control. The lungs were sectioned and stained with X-Gal (blue color.) FIG. 14A, intratracheal bleo+saline; FIG. 14B, intracheal bleo+ICG-001; FIG. 14C, saline+saline.
Using this murine model of pulmonary fibrosis in transgenic Bat-Gal mice, ICG-001 5 mg/Kg/day, administered via minipump) blocked >95% of bleomycin-induced TCF/β-catenin transcription.
These mice have a Beta-Galactosidase transgene driven by a TCF/Catenin driven promoter (i.e. a read out for activated Wnt/catenin signaling). The mice were given intratracheal saline or bleomycin and either treated with ICG-001 (5 mgs/Kg/day subcutaneously) or saline as vehicle control. The mice were sacrificed and the lungs sectioned and stained with X-Gal (blue color) A) intratracheal bleo+saline. B) intracheal bleo+ICG-001 C) saline+saline.
The dose was selected because ICG-001 reduces TCF/β-Catenin driven β-Galactosidase expression >95% at 5 mgs/Kg/day.

[2] = system: S100A4 (FSP-1, fibroblast specific protein-1); assay: Western blot for S100A4 on whole cell lysates of cultured IPF fibroblasts; format: cell-based, human
Description: (§1) FIG. 20. FIG. 20 depicts a Western blots for S100A4 (also know as FSP-1 or fibroblast specific protein-1) and E-Cadherin performed on whole cell lysates of IPF patient fibroblasts cultured in RPMI1640+10% FBS for 2 days and treated with ICG-001.
(§2) Western blots for S100A4 (also know as FSP-1 or fibroblast specific protein-1) and E-Cadherin were performed on whole cell lysates (FIG. 20).

E-Cadherin = assay: Western blot for E-Cadherin on whole cell lysates of cultured IPF patient fibroblasts; format: cell-based, human
Description: as §1, §2

S100A4 = assay: RT-PCR for S100A4 in bleomycin treated mice; format: in vivo; conditions: ICG-001 5 mgs/Kg/day s.c.
Source text: (§3) FIGS. 16 and 17 show RT-PCR data for S100A4 (FIG. 16) and collagen1A2 (FIG. 17), which are increased in the bleomycin treated mice (treated with saline control).

collagen1A2 = assay: RT-PCR for collagen1A2 in bleomycin treated mice; format: in vivo; conditions: ICG-001 5 mgs/Kg/day s.c.
Source text: as §3

[3] = system: C57/B16 mice treated with intratracheal bleomycin; assay: Murine model of bleomycin induced pulmonary fibrosis; lung sections stained with trichrome for collagen, plus body weight and survival; format: in vivo
Source text: FIG. 15. FIG. 15 depicts lung sections taken from C57/B16 mice treated with intratracheal bleomycin (lower left) or saline (upper left) for 5 days and stained with trichrome ([…]) to stain collagen.
Murine models of bleomycin induced fibrosis have been developed in order to study […] disease progression.
There is an absence of airway epithelium in lower left compared to upper left (see arrow heads) and extensive collagen deposition (lower left). […] Of interest is the upper right (saline treatment) showing lack of normal airway epithelialization, extensive collagen deposition and intra-airway hypercellularity (fibroblasts and inflammatory influx).
The procedures were performed using the animal model as described in Example 2 (FIG. 15), and the sectioned lungs were stained for collagen.

Aquaporin 5 = Aquaporin 5 immunostaining of lung tissue in the bleomycin mouse model; format: in vivo, mice; conditions: bleomycin and ICG-001 versus bleomycin alone
Source text: FIG. 22. […] Bleomycin alone, FIG. 22A; bleomycin and ICG-001, FIG. 22B; saline FIG. 22C.
The aquaporins are water channels expressed in a variety of cell types. Aquaporin 5 is involved in the transportation of water across the apical surface of the alveolar epithelium and the epithelia of the submucosal glands in the upper airway and nasopharynx. (Krane, C. M., P.N.A.S. 98:14192-4, 2001; Yang, F. J. Biol. Chem. 278:32173-80, 2003). Because aquaporin 5 is a marker of Type 1 (differentiated) lung epithelium, its expression was assayed in lung tissue created with bleomycin (FIG. 22A), bleomycin and ICG-001 (FIG. 22B), and saline (FIG. 22C), using the animal model as described in Example 2 (FIG. 15), and immunostaining with an antibody specific for Aquaporin 5.

[4] = IPF patient fibroblasts cultured for 2 days
[5] = bleomycin and ICG-001 versus bleomycin
[6] = bleomycin for 5 days, then ICG-001 5 mgs/Kg/day for 10 days from the sixth day

O=C1[C@H](Cc2ccc(O)cc2)N2C(=O)CCN(C(=O)NCc3ccccc3)[C@H]2CN1Cc1cccc2ccccc12 [ICG-001]
bleomycin-induced TCF/β-catenin transcription (TCF/β-Catenin driven β-Galactosidase expression) blocked/reduced [1]: > 95%
S100A4 expression (whole cell lysates) ([2]; ATCC IPF cells cultured in RPMI1640+10% FBS for 2 days): decreased
S100A4 expression at the mRNA level ([2]; IPF patient fibroblasts): also true at the mRNA level
S100A4 expression (Western blot, whole cell lysates) [2, 4]: decreased
E-cadherin expression at the mRNA level (E-Cadherin; IPF patient fibroblasts): also true at the mRNA level
E-cadherin expression (Western blot, whole cell lysates) (E-Cadherin; [4]): increased
S100A4 message (RT-PCR) (S100A4): reduced essentially to negative control
collagen1A2 message (RT-PCR) (collagen1A2): reduced essentially to negative control
alveolar fibrosis (lung sections stained for collagen) [3, 5]: prevented
interstitial fibrosis (lung sections stained for collagen) [3, 5]: prevented
body weight ([3]; bleomycin for 5 days, then ICG-001 5 mgs/Kg/day for 10 days): regained normal body weight
airway appearance in trichrome-stained lung sections [3, 6]: the airway looks essentially normal
collagen levels (trichrome stain) [3, 6]: normal collagen levels
survival ([3]; bleomycin for 5 days, then ICG-001 5 mgs/Kg/day for 10 days, untreated controls did not survive): survived
fibrosis over the 25 days of treatment ([3]; bleomycin mouse model, 25 days of treatment): reversed fibrosis
disease progression, as judged by reduced mortality, histopathology and endogenous gene expression ([3]; bleomycin murine model, 5 mg/Kg/day): not only halted but reversed disease progression
aquaporin 5 expression (immunostaining, marker of Type 1 lung epithelium) (Aquaporin 5): greatly increased
